Experimental findings from publication PMC9465178, “Cinnamaldehyde derivatives act as antimicrobial agents against Acinetobacter baumannii through the inhibition of cell division” (Frontiers in Microbiology, 2022) are described below.

The test system of assay [1] is Enterobacter aerogenes ATCC 13408. Briefly: Antibacterial activity (MIC), microbroth dilution. The assay is classed as cell-based. The settings on record: Klebsiella aerogenes, ATCC13408, read-out: Antibacterial activity (MIC). How it is done:
(§1) Reference bacterial strains were obtained from the American Type Culture Collection (ATCC). Vancomycin resistant Enterococcus faecium (VRE 734, wastewater isolate from the Venter Laboratory Collection) was isolated on Bile Esculin agar (Oxoid, Australia) containing 6 μg/mL vancomycin and identified using MALDI-TOF mass spectrometry (Bruker, Preston, Victoria, Australia, Australian Center for Antimicrobial Resistance Ecology). The Pseudomonas aeruginosa WT PAO1 and Escherichia coli with deletions of both acrA and acrB genes encoding drug efflux pumps were obtained from the Venter laboratory stock ([Welch et al., 2010]). The protocol for microbial growth was adopted from the European Committee on Antimicrobial Susceptibility Testing (EUCAST) ([European Committee for Antimicrobial Susceptibility Testing, 2016]).
(§2) Non-fastidious bacteria and clinical isolates were maintained in Mueller Hinton (MH) broth (Acumedia, United Kingdom) supplemented with 15% (v/v) glycerol (Chem-Supply, Australia), cultured on Mueller Hinton (MH) agar (Acumedia, United Kingdom) plated and incubated at 37°C. Fastidious bacteria were maintained in Brain Heart Infusion (BHI) broth (Acumedia, United Kingdom) supplemented with 15% (v/v) glycerol at −80°C. The fastidious bacteria were cultured on MH agar plates supplemented with 5% (v/v) lysed horse blood and 3% (v/v) fetal bovine serum and incubated at 30°C in the presence of 5% CO2. Drug susceptibility assays were carried out with the non-fastidious cultures grown in cation-adjusted Mueller Hinton (CaMH) broth (Becton Dickinson, France). Streptococcus pyogenes was grown in CaMH broth supplemented with 5% (v/v) lysed horse blood and 3% (v/v) fetal bovine serum whereas Enterococcus faecium was grown in BHI broth.
(§3) The minimum inhibitory concentrations (MICs) for all six compounds were determined using the microbroth dilution protocol as per EUCAST with an inoculum of approximately […] in an exponential growth phase ([European Committee for Antimicrobial Susceptibility Testing, 2016]). Bacterial suspension, 100 μL/well, was added to 100 μL/well of drug dilutions, then incubated for 18 h at 37°C. Fastidious bacterial suspensions were instead incubated at 30°C in the presence of 5% CO2. Bacterial growth was assessed by measuring the change in A600 nm between time 0 and 18 h (Cytation5® Cell Imaging Multi-Mode Reader, Bio-Tek®). Levofloxacin was used as the positive control. Assays were completed in duplicate in at least three independent experiments.
(In general: Broth dilution looks for growth in wells or tubes with falling amounts of substance.)

Assay [2] deals with Escherichia coli ATCC 35218. The experiment in a line: Antibacterial activity (MIC), microbroth dilution. The assay is classed as cell-based. The following applies: Escherichia coli, ATCC35218, read-out: Antibacterial activity (MIC). The method, then:
as §1, §2, §3

The test system of assay [3] is Escherichia coli WT BW 25113. Briefly: Antibacterial activity (MIC), microbroth dilution. The assay is classed as cell-based. The following applies: Escherichia coli, WTBW25113, read-out: Antibacterial activity (MIC). The method, then:
as §1, §2, §3

Assay [4] relates to Klebsiella pneumoniae ATCC 13883. The experiment in a line: Antibacterial activity (MIC), microbroth dilution. The assay is classed as cell-based. The settings on record: Klebsiella pneumoniae, ATCC13883, read-out: Antibacterial activity (MIC). How it is done: as §1, §2, §3
In assay [5] the test system is Klebsiella pneumoniae ATCC 33495. Briefly: Antibacterial activity (MIC), microbroth dilution. The settings on record: Klebsiella pneumoniae, ATCC33495, read-out: Antibacterial activity (MIC). It is filed as cell-based. How it is done:
as §1, §2, §3

Assay [6] has as its system Klebsiella pneumoniae ATCC 4352. The experiment in a line: Antibacterial activity (MIC), microbroth dilution. The settings on record: Klebsiella pneumoniae, ATCC4352, read-out: Antibacterial activity (MIC). The assay is classed as cell-based. The method, then: as §1, §2, §3
Assay [7] deals with Methicillin resistant Staphylococcus aureus. Briefly: Antibacterial activity (MIC), microbroth dilution. It is filed as cell-based. The following applies: Staphylococcus aureus, ATCC 43300 / MRSA, read-out: Antibacterial activity (MIC). How it is done: as §1, §2, §3
Assay [8] relates to Pseudomonas aeruginosa WT PAO1. The experiment in a line: Antibacterial activity (MIC), microbroth dilution. The assay is classed as cell-based. The following applies: Pseudomonas aeruginosa, PAO1, read-out: Antibacterial activity (MIC). How it is done:
as §1, §2, §3

For assay [9], the system named is Streptococcus pneumoniae (type 3, mucoid strain) ATCC 6303. The experiment in a line: Antibacterial activity (MIC), microbroth dilution. The assay is classed as cell-based. The following applies: Streptococcus pneumoniae, ATCC6303, read-out: Antibacterial activity (MIC). The method, then: as §1, §2, §3
Assay [10] relates to Streptococcus pyogenes ATCC 10389. The experiment in a line: Antibacterial activity (MIC), microbroth dilution. It is filed as cell-based. The following applies: Streptococcus pyogenes, ATCC10389, read-out: Antibacterial activity (MIC). The method, then:
as §1, §2, §3

The test system of a further assay is AbFtsZ. The experiment in a line: AbFtsZ polymerization, 90° light scattering. The following applies: test compound at 128 μg/mL, AbFtsZ 0.15 mg/mL, 1 mM GTP, 8°C. The assay is classed as biochemical, Acinetobacter baumannii. The method, then: Effects on inhibition of the cinnamaldehyde derivatives on AbFtsZ polymerization were analyzed using the assay as previously described ([Chai et al., 2020]) with the following modifications. A reaction mix was prepared in a cold Eppendorf® tube where AbFtsZ (0.15 mg/mL) was mixed with the test compound at the desired concentration and a polymerization buffer diluted from a double strength buffer to give a final concentration of 25 mM PIPES pH 6.8, 50 mM KCl and 10 mM MgCl2. The reaction mix was prepared such that the DMSO concentration remained constant at 2% (v/v). The mix was then added into a quartz cuvette (PerkinElmer®, United Kingdom), and placed in a PerkinElmer® LS 55 fluorometer under the fixed condition of excitation/emission at 350/350 nm, slit width < 2 nm, a 1 s read interval. The temperature was calibrated to remain constant at 8°C. The fluorescence was followed for 300 sec to allow equilibration, then polymerization was initiated with the addition of 1 mM GTP. A separate negative control was prepared where 1 mM GDP was added instead of the GTP. The reaction was followed for 600 s.
(A–F) AbFtsZ (0.15 mg/mL) was pre-incubated in polymerization buffer (25 mM PIPES pH 6.8, 50 mM KCl and 10 mM MgCl2) together with the test compound at 128 μg/mL for 300 s. Polymerization was then initiated with the addition of 1 mM GTP. The fluorescence was measured as a function of time at excitation and emission wavelengths of A350 and A350 nm, respectively, and a slit width of <2 nm. The blue line in each panel indicates the addition of 2.5% (v/v) DMSO, the pink line indicates the test compound tested at 128 μg/mL and the gray line represents the addition of 1 mM GDP (as negative control) instead of GTP.

Converted amounts (≈) assume the structure as drawn.

In the case of `Cc1nc2ccccc2n1C(=O)/C=C/c1ccccc1` [Compound 1], the MIC in assay [1], in assay [2], in assay [3], in assay [4], in assay [5] and in assay [6] was over 256 µg/mL each time. For the same compound, the minimal inhibitory concentration (MIC) was 256 µg/mL (≈ 976 µM) in [7], 256 µg/mL (≈ 976 µM) in assay [8], 256 µg/mL (≈ 976 µM) in assay [9] and over 256 µg/mL in assay [10]. Also, the “Inhibition of AbFtsZ polymerization” value in the assay with AbFtsZ is “strongest activity observed with compound 5, followed by compounds 1 and 6”.

As to `Cc1nc2ccccc2n1C(=O)/C=C/c1ccc(Cl)cc1Cl` [Compound 6], the MIC in assay [1], in assay [2], in assay [3], in [4], in assay [5] and in [6] was over 256 µg/mL throughout. Moreover, the minimum inhibitory concentration (MIC) was 64 µg/mL (≈ 193 µM) in assay [7], 256 µg/mL (≈ 773 µM) in [8], 256 µg/mL (≈ 773 µM) in assay [9] and over 256 µg/mL in assay [10]. Also, the “Inhibition of AbFtsZ polymerization” value in the assay with AbFtsZ is “strongest activity observed with compound 5, followed by compounds 1 and 6”.

With `COc1ccc(/C=C/C(=O)n2c(C)nc3ccccc32)cc1OC` [Compound 5], the minimal inhibitory concentration (MIC) in assay [1], in [2], in [3], in assay [4], in [5] and in assay [6] was over 256 µg/mL each time. Moreover, the minimum inhibitory concentration (MIC) was over 256 µg/mL in [7], over 256 µg/mL in assay [8], 256 µg/mL (≈ 794 µM) in assay [9] and over 256 µg/mL in [10]. For the same compound, the “Inhibition of AbFtsZ polymerization” value with AbFtsZ is listed as “strongest activity”.

Turning to `Cc1nc2ccccc2n1C(=O)/C=C/c1ccc(F)cc1` [Compound 2], the minimum inhibitory concentration (MIC) in assay [1], in assay [2], in assay [3], in [4], in assay [5] and in assay [6] was over 256 µg/mL throughout. Further, the MIC in assay [7] is over 256 µg/mL; in [8] it was 256 µg/mL (≈ 913 µM); in assay [9], 256 µg/mL (≈ 913 µM); in assay [10], over 256 µg/mL.

Turning to `Cc1nc2ccccc2n1C(=O)/C=C/c1ccc(Br)cc1` [Compound 4], the MIC in assay [1], in assay [2], in assay [3], in [4], in assay [5] and in [6] was over 256 µg/mL each time. For the same compound, the MIC in [7] was over 256 µg/mL; in [8] it was over 256 µg/mL; in assay [9] it was 256 µg/mL (≈ 750 µM); in [10], over 256 µg/mL.

As to `Cc1nc2ccccc2n1C(=O)/C=C/c1ccc(Cl)cc1` [Compound 3], the minimal inhibitory concentration (MIC) in assay [1], in assay [2], in [3], in assay [4], in assay [5] and in [6] was over 256 µg/mL throughout. The MIC in [7] was over 256 µg/mL; in [8], over 256 µg/mL; in assay [9], 256 µg/mL (≈ 863 µM); in [10] it was over 256 µg/mL.

For orientation: MIC means the lowest concentration found to suppress growth.
